9 compounds from PubChem BioAssay (NCI) can be followed below.

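Values below derive from 48-hour exposures of cells grown in 96-well plates, with endpoints linearly interpolated between the two concentrations bracketing the appropriate inhibition level. TGI marks complete inhibition of growth.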

Some test systems named below: KM12 colon; K-562 leukemia; MCF7 breast; SK-OV-3 ovarian; OVCAR-4 ovarian; HT29 colon; HOP-62 NSCLC; HL-60(TB) leukemia; MDA-MB-435; TK-10 renal; SNB-19 CNS; MALME-3M melanoma; U251 CNS; RXF 393 renal; RPMI-8226 leukemia; SK-MEL-5 melanoma; ACHN renal.
Holding throughout (experiment): NCI tumour cell line growth inhibition, 48 h

For the compound `Cn1c2c(c3ccccc31)CC(=O)N1CCCC(C1)CC21OCCO1` (stereo unspecified), the TGI with KM12 colon, with K-562 leukemia, in the test with MCF7 breast, in the test on SK-OV-3 ovarian, with OVCAR-4 ovarian and with HT29 colon was more than 100 µM throughout. Besides, the TGI in the test with HOP-62 NSCLC, in the test on HL-60(TB) leukemia, in the test with MDA-MB-435, in the test on TK-10 renal, with SNB-19 CNS and in the test on MALME-3M melanoma was more than 100 µM throughout. The TGI in the test with U251 CNS, in the test on RXF 393 renal, in the test with RPMI-8226 leukemia, with SK-MEL-5 melanoma and in the test on ACHN renal was more than 100 µM throughout.
With `O=CN1CCN(C(=O)c2ccc(Cl)cc2)C1=S`, the TGI in the test on KM12 colon was 25.2 µM; in the test with K-562 leukemia it was 39.6 µM; in the test with MCF7 breast, 11 µM; in the test with SK-OV-3 ovarian it was 74.6 µM; in the test with OVCAR-4 ovarian, 35.5 µM; with HT29 colon, 33 µM. In addition, the TGI was determined as 44 µM in the test with HOP-62 NSCLC; 44.1 µM in the test with HL-60(TB) leukemia; 28 µM in the test on MDA-MB-435; 28.2 µM with TK-10 renal; 29.5 µM with SNB-19 CNS; 41.8 µM in the test on MALME-3M melanoma. The TGI in the test on U251 CNS is 28.2 µM; with RXF 393 renal, 31 µM; in the test on RPMI-8226 leukemia it was 17.1 µM; in the test with ACHN renal it was 31 µM.
For `Nc1ncnc2c1ccn2CC=C(CO)CO`, the TGI in the test on KM12 colon, in the test with K-562 leukemia, in the test on MCF7 breast, in the test with SK-OV-3 ovarian, in the test with OVCAR-4 ovarian and with HT29 colon was more than 100 µM throughout. Also, the TGI in the test with HOP-62 NSCLC, with HL-60(TB) leukemia, with MDA-MB-435, in the test with TK-10 renal, in the test with SNB-19 CNS and with MALME-3M melanoma was more than 100 µM each time. In addition, the TGI in the test on U251 CNS, in the test on RXF 393 renal, in the test with RPMI-8226 leukemia, with SK-MEL-5 melanoma and in the test with ACHN renal was more than 100 µM each time.
Take `COC1=CCC2=C(CCN(C(=O)C3CC3)C2Cc2ccc(OC)c(O)c2)C1` (stereo unspecified): the TGI in the test on KM12 colon, in the test with K-562 leukemia, with MCF7 breast, with SK-OV-3 ovarian, with OVCAR-4 ovarian and with HT29 colon was more than 100 µM throughout. Further, the TGI in the test with HOP-62 NSCLC was more than 100 µM; with HL-60(TB) leukemia, 91.7 µM; in the test on MDA-MB-435 it was 68.8 µM; in the test on TK-10 renal it was more than 100 µM; in the test with SNB-19 CNS, more than 100 µM; in the test with MALME-3M melanoma, more than 100 µM. Also, the TGI was more than 100 µM with U251 CNS; 59.5 µM in the test on RXF 393 renal; more than 100 µM with RPMI-8226 leukemia; more than 100 µM with SK-MEL-5 melanoma; more than 100 µM with ACHN renal.
With `CCn1c(SCC(=O)NNC(=S)Nc2ccc(Cl)cc2)nc2ccccc2c1=O`, the TGI in the test with KM12 colon, with K-562 leukemia, in the test with MCF7 breast, in the test with SK-OV-3 ovarian, with OVCAR-4 ovarian and with HOP-62 NSCLC was more than 100 µM each time. Also, the TGI was 84.9 µM with HL-60(TB) leukemia; more than 100 µM in the test on MDA-MB-435; more than 100 µM in the test on TK-10 renal; more than 100 µM with SNB-19 CNS; more than 100 µM with MALME-3M melanoma; more than 100 µM in the test with U251 CNS. The TGI is more than 100 µM in the test on RXF 393 renal, 94.8 µM with RPMI-8226 leukemia, more than 100 µM in the test with SK-MEL-5 melanoma and more than 100 µM in the test on ACHN renal.
For `Clc1ccc(/C=C/c2nc(-c3ccc(Cl)cc3)cn3c2nc2ccccc23)cc1`, the TGI in the test with KM12 colon, with K-562 leukemia, with MCF7 breast, in the test on SK-OV-3 ovarian, in the test on OVCAR-4 ovarian and in the test with HT29 colon was more than 100 µM each time. Also, the TGI in the test with HOP-62 NSCLC, in the test on HL-60(TB) leukemia, in the test with MDA-MB-435, in the test on TK-10 renal, with SNB-19 CNS and in the test on MALME-3M melanoma was more than 100 µM each time. Besides, the TGI in the test with U251 CNS, in the test on RXF 393 renal, in the test on RPMI-8226 leukemia, in the test on SK-MEL-5 melanoma and in the test on ACHN renal was more than 100 µM throughout.
For `CC(=O)c1c2c(cc3c1CC1(C3)Cc3ccc4c(c3C1=O)CCC4)CCC2` (stereo unspecified), the TGI in the test with KM12 colon, with K-562 leukemia, in the test on MCF7 breast, with SK-OV-3 ovarian, in the test with OVCAR-4 ovarian and in the test on HT29 colon was more than 100 µM in each case. Besides, the TGI is more than 100 µM in the test with HOP-62 NSCLC; 15 µM in the test on HL-60(TB) leukemia; 32.8 µM in the test on MDA-MB-435; more than 100 µM in the test on TK-10 renal; more than 100 µM in the test on SNB-19 CNS; more than 100 µM in the test on MALME-3M melanoma. Besides, the TGI is more than 100 µM with U251 CNS; more than 100 µM in the test with RXF 393 renal; more than 100 µM in the test with RPMI-8226 leukemia; 38.5 µM with SK-MEL-5 melanoma; more than 100 µM in the test with ACHN renal.
For the compound `CCCC(=O)n1[nH]c(=O)n(C(C)(C)C)c1=O`, the TGI in the test with KM12 colon, in the test with K-562 leukemia, in the test with MCF7 breast, in the test on SK-OV-3 ovarian, with OVCAR-4 ovarian and with HT29 colon was more than 100 µM each time. The TGI in the test on HOP-62 NSCLC, in the test on HL-60(TB) leukemia, in the test on MDA-MB-435, with TK-10 renal, with SNB-19 CNS and with MALME-3M melanoma was more than 100 µM throughout. In addition, the TGI in the test with U251 CNS, in the test on RXF 393 renal, with RPMI-8226 leukemia, in the test on SK-MEL-5 melanoma and in the test with ACHN renal was more than 100 µM each time.
Consider `c1ccc2c(c1)ncn2CCn1ccnc1`, for which the TGI in the test with KM12 colon, in the test with K-562 leukemia, in the test on MCF7 breast, with SK-OV-3 ovarian, with OVCAR-4 ovarian and in the test with HT29 colon was more than 100 µM each time. Besides, the TGI with HOP-62 NSCLC, in the test on HL-60(TB) leukemia, in the test on MDA-MB-435, with TK-10 renal, in the test with SNB-19 CNS and with MALME-3M melanoma was more than 100 µM each time. The TGI with U251 CNS, in the test on RXF 393 renal, in the test on RPMI-8226 leukemia, with SK-MEL-5 melanoma and in the test with ACHN renal was more than 100 µM throughout.
